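Protocol summary: plate cells (96-well), add compound at 5 concentrations, incubate 48 h, interpolate endpoints linearly. GI50 = concentration required for 50% inhibition of growth. TGI: total growth inhibition.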

Here are results for 11 compounds from PubChem BioAssay (NCI).

Among the test systems are CAKI-1 renal; HCT-116 colon; HT29 colon; LOX IMVI melanoma; MOLT-4 leukemia; RPMI-8226 leukemia; SF-268 CNS; UO-31 renal; CCRF-CEM leukemia; MALME-3M melanoma.
Holding throughout (assay): NCI tumour cell line growth inhibition, 48 h

Take `COc1ncnc(S(=O)(=O)c2ccc(N=C3C(=O)N(CN4CCN(c5cc6c(cc5F)c(=O)c(C(=O)O)cn6C5CC5)CC4)c4ccc(Cl)cc43)cc2)c1OC`: the GI50 with CAKI-1 renal is 12.7 µM; in the assay with HCT-116 colon, 26.4 µM; in the assay with HT29 colon it was more than 50 µM; in the assay with LOX IMVI melanoma, 23.8 µM; in the assay with MOLT-4 leukemia, 24.9 µM; in the assay on RPMI-8226 leukemia, 13.5 µM. The GI50 in the assay on SF-268 CNS is 49 µM; in the assay with UO-31 renal, 47.2 µM. For the same compound, the TGI with CAKI-1 renal, with HCT-116 colon, in the assay on HT29 colon, with LOX IMVI melanoma, in the assay on MOLT-4 leukemia and in the assay with RPMI-8226 leukemia was more than 50 µM each time. Besides, the TGI in the assay with SF-268 CNS and with UO-31 renal was more than 50 µM in each case.
Regarding `Cn1c(-c2ccc(/C=N/NC(=S)N/N=C/c3ccc(-c4c[n+]5ccsc5n4C)cc3)cc2)c[n+]2ccsc12`, the TGI in the assay on CCRF-CEM leukemia, with HCT-116 colon, in the assay with HT29 colon, in the assay with MOLT-4 leukemia, with RPMI-8226 leukemia and in the assay with SF-268 CNS was more than 100 µM each time. Besides, the TGI with UO-31 renal is more than 100 µM.
In the case of `Cc1c(-c2ccnc(N)n2)c2c(n1Cc1ccccc1)C(=O)c1ccccc1C2=O`, the GI50 in the assay on CAKI-1 renal was 4.66 µM; in the assay with CCRF-CEM leukemia it was more than 100 µM; in the assay on HCT-116 colon it was 3.7 µM; in the assay on LOX IMVI melanoma, 1.98 µM; in the assay on RPMI-8226 leukemia it was more than 100 µM; with UO-31 renal it was 3.28 µM. Besides, the TGI with CAKI-1 renal was 52.9 µM; in the assay with CCRF-CEM leukemia it was more than 100 µM; with HCT-116 colon it was 16.6 µM; with LOX IMVI melanoma, 6.65 µM; in the assay with RPMI-8226 leukemia it was more than 100 µM; with UO-31 renal, 21.8 µM.
As for `NCCOCCOCCNc1nc(-c2ccc(Cl)cc2)nc(N2CCN(c3ccccn3)CC2)n1`, the GI50 with CAKI-1 renal was 2.01 µM; with HCT-116 colon, 1.75 µM; with HT29 colon, 1.85 µM; with MALME-3M melanoma, 2.18 µM; in the assay with MOLT-4 leukemia it was 1.99 µM; with SF-268 CNS it was 3.24 µM. Also, the GI50 in the assay with UO-31 renal is 2.07 µM. In addition, the TGI came out at 5.24 µM in the assay on CAKI-1 renal; 3.22 µM with HCT-116 colon; 3.78 µM in the assay with HT29 colon; 4.18 µM in the assay with MALME-3M melanoma; 3.85 µM in the assay on MOLT-4 leukemia; 12.9 µM in the assay on SF-268 CNS. For the same compound, the TGI in the assay with UO-31 renal worked out at 5.02 µM.
Regarding `CCCCCC[C@H](C)Nc1nc2ccccc2c2occc12`, the GI50 was 10.6 µM in the assay with CAKI-1 renal; 4.33 µM in the assay with CCRF-CEM leukemia; 3.2 µM with HCT-116 colon; 8.15 µM in the assay with HT29 colon; 8.61 µM with LOX IMVI melanoma; 3.47 µM with MOLT-4 leukemia. The GI50 with RPMI-8226 leukemia was 3.74 µM; in the assay on SF-268 CNS, more than 100 µM; in the assay on UO-31 renal, 4.55 µM. For the same compound, the TGI is 26.3 µM in the assay on CAKI-1 renal; 21.1 µM in the assay on CCRF-CEM leukemia; 13.3 µM in the assay with HCT-116 colon; more than 100 µM with HT29 colon; 21.4 µM with LOX IMVI melanoma; 16.2 µM in the assay on MOLT-4 leukemia. Moreover, the TGI in the assay on RPMI-8226 leukemia is 44.3 µM; with SF-268 CNS, more than 100 µM; with UO-31 renal, 19.2 µM.
Consider `c1ccc2c(c1)SCCCSCCSCCCS2`, for which the TGI in the assay on CCRF-CEM leukemia, with HCT-116 colon, with HT29 colon, in the assay with LOX IMVI melanoma, with MOLT-4 leukemia and in the assay on SF-268 CNS was more than 100 µM in each case. Also, in the assay with UO-31 renal, the TGI was more than 100 µM.
On to `CC(C)CCCC(C)[C@H]1CCC2[C@@H]3CCC4Nc5c(cnn5-c5ccccc5)C[C@]4(C)C3CC[C@@]21C` (some centres not stated), for which the TGI was 78.4 µM in the assay with CAKI-1 renal; more than 100 µM in the assay with CCRF-CEM leukemia; more than 100 µM in the assay with HCT-116 colon; more than 100 µM in the assay on HT29 colon; more than 100 µM in the assay on MALME-3M melanoma; more than 100 µM in the assay on MOLT-4 leukemia. Further, the TGI with RPMI-8226 leukemia is more than 100 µM; in the assay on SF-268 CNS it was more than 100 µM; with UO-31 renal, 50.4 µM.
As for `CC(C)(C)OC(=O)NCCCn1c2c(c3ccccc3c1=O)C(=O)c1ccccc1-2`, the GI50 is 6.86 µM in the assay with CAKI-1 renal; more than 100 µM in the assay with CCRF-CEM leukemia; 4.71 µM with HCT-116 colon; 6.98 µM in the assay with LOX IMVI melanoma; 32.9 µM with MALME-3M melanoma; more than 100 µM with MOLT-4 leukemia. The figures for the GI50 in the assay with SF-268 CNS and in the assay on UO-31 renal were 4.56 µM and 71.5 µM, respectively. Moreover, the TGI in the assay with CAKI-1 renal was 22.2 µM; in the assay on CCRF-CEM leukemia, more than 100 µM; in the assay on HCT-116 colon, 17.8 µM; in the assay on LOX IMVI melanoma, 43 µM; with MALME-3M melanoma it was more than 100 µM; with MOLT-4 leukemia it was more than 100 µM. Further, the TGI with SF-268 CNS is 17.7 µM; in the assay on UO-31 renal, more than 100 µM.
As for `Cc1cc(N=C2C=C(Br)C(=O)C(Br)=C2)cc(CN(CC(=O)O)CC(=O)O)c1O`, the TGI with CAKI-1 renal, in the assay on CCRF-CEM leukemia, in the assay on HCT-116 colon, with HT29 colon, in the assay on MALME-3M melanoma and in the assay on MOLT-4 leukemia was more than 100 µM each time. Further, the TGI in the assay with RPMI-8226 leukemia, in the assay on SF-268 CNS and with UO-31 renal was more than 100 µM each time.
For the compound `CC(=O)[O-].[Mn+3].[O-]c1ccccc1C=NCCNCCN=Cc1ccccc1[O-]`, the GI50 in the assay on CCRF-CEM leukemia was 86.1 µM; in the assay on HCT-116 colon, more than 100 µM; in the assay with HT29 colon, more than 100 µM; in the assay with LOX IMVI melanoma it was more than 100 µM; in the assay with MALME-3M melanoma, 58.1 µM; in the assay with MOLT-4 leukemia, more than 100 µM. Also, the GI50 in the assay on SF-268 CNS and in the assay with UO-31 renal was more than 100 µM in each case. Besides, the TGI in the assay with CCRF-CEM leukemia, with HCT-116 colon, in the assay with HT29 colon, in the assay with LOX IMVI melanoma, with MALME-3M melanoma and with MOLT-4 leukemia was more than 100 µM in each case. Besides, the TGI with SF-268 CNS and in the assay on UO-31 renal was more than 100 µM throughout.
Regarding `O=c1[nH]c2ccccc2n1CCCN1CCC(n2c(=O)[nH]c3cc(Cl)ccc32)CC1`, the TGI with CAKI-1 renal is 50.6 µM; with CCRF-CEM leukemia, more than 100 µM; in the assay with HCT-116 colon it was 31.4 µM; with HT29 colon, 30.3 µM; in the assay with MALME-3M melanoma it was 32 µM; in the assay on MOLT-4 leukemia, 45.1 µM. The TGI with RPMI-8226 leukemia was 57.8 µM; in the assay with UO-31 renal, 20.3 µM.
